Assay results: patent publication US9861703B2 (Jinan Platinum Pharmatech Co. Ltd., priority 2013, dated 2018)
Where a name gives a salt, the structure may show the parent alone. Each block holds one compound with its values, some of them ahead of it.

Assays:
Aminopeptidase N = biological target: T1, Aminopeptidase N (Sus scrofa, UniProt P15145); test: Inhibition activity against enzyme in vitro (aminopeptidase N, L-Leu-p-nitroanilide substrate); type: biochemical; conditions: for IC50: 37° C., 0.5 h, absorbance 405 nm, PBS pH 7.2, read-out: IC50(μM) APN
T1 construct: purchased Sigma
T1 sequence (P15145 1-963): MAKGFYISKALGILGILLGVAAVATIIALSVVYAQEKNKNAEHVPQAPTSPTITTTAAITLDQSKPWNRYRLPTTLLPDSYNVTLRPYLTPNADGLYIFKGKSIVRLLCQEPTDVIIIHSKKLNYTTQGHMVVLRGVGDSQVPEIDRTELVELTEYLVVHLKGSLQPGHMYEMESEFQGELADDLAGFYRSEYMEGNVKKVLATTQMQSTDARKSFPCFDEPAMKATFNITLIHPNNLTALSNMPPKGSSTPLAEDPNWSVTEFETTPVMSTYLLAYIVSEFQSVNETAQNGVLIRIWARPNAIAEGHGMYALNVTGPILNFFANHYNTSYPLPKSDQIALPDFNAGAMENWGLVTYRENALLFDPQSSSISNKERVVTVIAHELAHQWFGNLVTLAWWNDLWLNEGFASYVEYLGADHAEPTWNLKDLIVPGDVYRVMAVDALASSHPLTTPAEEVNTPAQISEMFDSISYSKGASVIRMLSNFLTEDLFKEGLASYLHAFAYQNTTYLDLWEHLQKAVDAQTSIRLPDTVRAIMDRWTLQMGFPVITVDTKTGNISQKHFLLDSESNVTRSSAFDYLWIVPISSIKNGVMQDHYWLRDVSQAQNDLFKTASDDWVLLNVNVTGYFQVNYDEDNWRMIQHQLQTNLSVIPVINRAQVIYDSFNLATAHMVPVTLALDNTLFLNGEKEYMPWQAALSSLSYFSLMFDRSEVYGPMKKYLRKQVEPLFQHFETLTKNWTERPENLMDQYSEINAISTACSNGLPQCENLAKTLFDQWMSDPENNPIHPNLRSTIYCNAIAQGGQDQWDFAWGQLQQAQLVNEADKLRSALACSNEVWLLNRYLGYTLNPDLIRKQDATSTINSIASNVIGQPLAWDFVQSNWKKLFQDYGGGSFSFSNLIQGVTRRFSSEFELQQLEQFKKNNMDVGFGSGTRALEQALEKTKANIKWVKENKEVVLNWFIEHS
Procedure: Aminopeptidase N and L-Leu-p-nitroanilide as substrate were purchased from Sigma cooperation.
Preparation of Buffer Solution: 12.89 g Na2HPO4.12H2O and 2.18 g NaH2PO4.2H2O were dissolved in a 1000 mL volumetric flask, then the mixture was diluted to 1000 mL with fresh distilled water to obtain 50 mM Phosphate Buffer solution (PBS, pH 7.2), which was kept at room temperature to spare.
Aminopeptidase N was dissolved in the buffer solution to obtain 0.1 IU/mL solution.
The substrate was dissolved in DMSO to obtain a […] solution, which was kept in refrigerator to spare.
The aminopeptidase N solution 10 μL, the substrate solution 5 μL and compound with different concentration 40 μL were added into a 96-well cell plate, and then adjusted to 200 μL with phosphate buffer saline solution (pH 7.2). […] And the substrate solution 5 μL of blank group was adjusted to 200 μL with buffer solution. The mixture was incubated at 37° C. for 0.5 h, and absorbance was then determined at 405 nm wavelength Inhibitory ratio can be calculated as follows: […]
According to concentration of compound and corresponding inhibitory ratio, the IC50 value was calculated by using a fitting curve of Origin 7.5 software.

H22 tumor cells = test: Activities of compounds in H22 tumor cells bearing Kunming mice models (Example 34); conditions: intravenous injection, 58.3 mg/kg/d (0.1 mmol/kg/d)
Procedure: The ascites was extracted from H22 tumour bearing mice with well growth, followed by adding sterile PBS to dilute the ascites to a concentration of 8.5×10^7 cells/mL. 100 uL of the cells solution was suck up by a 1 mL sterile injector to inoculate into right oxter of mice. After 3 days, the mice were weighted and randomized to several groups (almost 8 mice per group, and a bit more in control group). These mice were administrated a predetermined dosage by intravenous or oral gavage with two days off when having administrated for 5 days until two cycles one of which had 7 days. The body weight of mouse was recorded at the beginning and ending of every cycle,
After being administrated for two cycles, the mice were weighted and recorded, then sacrificed by cervical dislocation to get lung, liver and spleen weighted respectively.
Overall difference was calculated by the function of one-way analysis of variance (One-Way ANOVA) in Origin 7.5 software; and t-test was used for pair-comparison between drug administrated group and blank group, and the inhibitory ratio of drug in each group was calculated based on the following equation: inhibitory ratio (100%)=(mean tumor weight of control group−mean tumor weight of drug administrated group)/mean tumor weight of control group×100.

[1] = test system: clear-cell ovarian carcinoma cell line ES-2; test: MTT proliferation inhibition, ES-2; type: cell-based; conditions: 48 h
Procedure: (§1) Human leukemia cell line K562, clear-cell ovarian carcinoma cell line ES-2, human prostate cancer cell line PC-3, human breast cancer cell line MCF-7, cell line Hela, human liver cancer cell line H7402 and human ovarian cancer cell line 3-AO were transferred into a culture flask and were cultured in a medium at 37° C. in a 5% CO2 and saturation humidity. One bottle of cells in logarithmic growth phase was picked out and was blew and beaten to be uniform with a pipette, then took some cell suspension solution to prepare blood counting plate smear to count cells under inverted microscope, and then adjusted the cell number to be 1×10^5/mL by adding some culture medium. Cells were seeded on a 96-well plate on which also drug tests performed. Blank control group, negative control group, positive control group and drug test group were established on the plate while the surrounding wells of the plate were not used (but filled with sterile PBS), wherein the blank control groups were prepared by addition of culture medium 150 μL per well, the negative control groups were prepared by addition of cell suspension solution 100 μL per well and culture medium 50 μL per well, the positive control groups were prepared by addition of cell suspension solution 100 μL per well and positive control drug solution 50 μL per well, the drug test groups were prepared by addition of cell suspension solution 100 μL per well and test compound solution 50 μL per well, and there were 5 different concentrations of drug in the positive control group and the drug test group respectively: 0.01, 0.1, 1, 10, 100 μmol·L^−1, each concentration was established with 3 parallel wells. After the drug was added, the 96-well plate was incubated for 48 h at 37° C. in a CO2 incubator of 5% CO2 and saturation humidity. Upon completion of the incubation, 20 μL MTT solution (concentration was 5 mg/mL) was added to each well and incubated for an additional 4 h, and after the 96-well plate was centrifuged at 2000 rpm for 30 min, medium of each well was suck out carefully and removed and 100 μL DMSO was added instead, followed by vibrating on a tablet shaker for 15 min to re-dissolve formazan crystals completely. OD value of each well was measured at 570 nm wavelength using an enzyme-linked immunosorbent assay reader to calculate cellular proliferation inhibitory ratio of each drug in different concentrations. And half-inhibitory concentration (IC50) was calculated using statistical software SPSS 16.0, wherein the cellular proliferation inhibitory ratio can be calculated as following equation: […]

[2] = test system: human leukemia cell line K562; test: MTT proliferation inhibition, K562; type: cell-based
Procedure: as §1

[3] = test system: human prostate cancer cell line PC-3; test: MTT proliferation inhibition, PC-3; type: cell-based; conditions: 48 h
Procedure: as §1

[4] = test system: human breast cancer cell line MCF-7; test: MTT proliferation inhibition, MCF-7; type: cell-based
Procedure: as §1

cell line Hela = test: MTT proliferation inhibition, Hela; type: cell-based; conditions: 48 h
Procedure: as §1

[5] = test system: human liver cancer cell line H7402; test: MTT proliferation inhibition, H7402; type: cell-based
Procedure: as §1

[6] = test system: human ovarian cancer cell line 3-AO; test: MTT proliferation inhibition, 3-AO; type: cell-based; conditions: 48 h
Procedure: as §1

[7] = test system: 7 cell lines (ES-2, K562, PC-3, MCF-7, Hela, H7402, 3-AO); test: MTT proliferation inhibition, all 7 tumor cell lines (summary in words); type: cell-based
Procedure: as §1

Compound: CC(C)C[C@H](NC(=O)[C@@H](O)[C@H](N)Cc1ccccc1)C(=O)N1CCC[C@H]1C(=O)OCn1cc(F)c(=O)[nH]c1=O [BC-07, (S)-(5-fluoro-2,4-dioxo-3,4-dihydropyrimidinyl-1(2H))methyl-1-((S)-2-((2S,3R)-3-amino-2-hydroxy-4-phenylbutanamido)-4-methylpentanamido)-2-tetrahydropyrrolidine carboxylate hydrochloride]
inhibitory activity against aminopeptidase N compared with positive control ubenimex (Aminopeptidase N): much more potent than the positive control drug ubenimex | IC50 (Aminopeptidase N): 0.15 µM | Number of mice alive (H22 tumor cells; 8 mice, two cycles): 6 | Tumor growth inhibition (%) (H22 tumor cells; after two cycles): 43.61% | Tumor weight (H22 tumor cells; after two cycles): 0.34 ± 0.24 g | Body weight(g) Beginning (H22 tumor cells; beginning): 32.17 ± 3.86 g | Body weight(g) Ending (H22 tumor cells; ending): 31.44 ± 5.01 g

Compound: CC(C)C[C@H](NC(=O)[C@@H](O)[C@H](N)Cc1ccccc1)C(=O)ONC(N)=O [Compound 22, (2S,3R)-3-amino-2-hydroxy-N—((S)-4-methylvaleryl)oxy)ureido)-4-phenylbutanamide hydrochloride]
inhibitory activity against aminopeptidase N compared with positive control ubenimex (Aminopeptidase N): comparable activity with ubenimex | IC50 (Aminopeptidase N): 2.92 µM | EC50 ([1]; Ovarian carcinoma cell): 5.66 µM | EC50 ([2]; Homo sapiens, K562, 48 h): 6.52 µM | EC50 ([3]; Homo sapiens): 13.3 µM | EC50 ([4]; Homo sapiens, MCF7, 48 h): 6.74 µM | EC50 (cell line Hela; Homo sapiens): 5.55 µM | EC50 ([5]; Homo sapiens, H7402, 48 h): 7.98 µM | EC50 ([6]; Homo sapiens): 9.06 µM | anti-proliferation effect against all the tumor cells [7]: obvious anti-proliferation effect | proliferation inhibition activity compared with 5-FU [7]: much more potent than 5-FU

Compound: CC(C)C[C@H](NC(=O)[C@@H](O)[C@H](N)Cc1ccccc1)C(=O)O [ubenimex, Ubenimex, reference compound]
EC50 ([1]; Ovarian carcinoma cell): > 400 µM | EC50 ([2]; Homo sapiens, K562, 48 h): > 400 µM | EC50 ([3]; Homo sapiens): > 400 µM | EC50 ([4]; Homo sapiens, MCF7, 48 h): 32.7 µM | EC50 (cell line Hela; Homo sapiens): 79.6 µM | EC50 ([5]; Homo sapiens, H7402, 48 h): 189 µM | EC50 ([6]; Homo sapiens): > 400 µM

Compound: (S)-2-(4-(6-(5-(2-chloro-6-methylphenyl)-2-thiazolylcarbonyl amino)-2-methyl-4-pyrimidinyl)-1-piperazinyl)ethyl-2-((2S,3R)-3-amino-2-hydroxy-4-phenylbutyryl)-4-methylpentanoate hydrochloride [Compound 32]
inhibitory activity against aminopeptidase N compared with positive control ubenimex (Aminopeptidase N): comparable activity with ubenimex | IC50 (Aminopeptidase N): 7.88 µM | EC50 [1]: 6.45 µM | EC50 ([2]; 48 h): 6.33 µM | EC50 [3]: 14.1 µM | EC50 ([4]; 48 h): 3.65 µM | EC50 (cell line Hela): 3.23 µM | EC50 ([5]; 48 h): 6.75 µM | EC50 [6]: 4.89 µM | anti-proliferation effect against all the tumor cells [7]: obvious anti-proliferation effect | proliferation inhibition activity compared with 5-FU [7]: much more potent than 5-FU

Compound: (S)-2-((2S,4S)-4-((2S,4S,5R,6S)-4-((tert-butoxycarbonyl)amino)-5-hydroxy-6-methyl-2(2H)-tetrahydropyranyloxy))-2,5,12-trihydroxy-7-methoxy-6,11-dioxo-2-(1,2,3,4,6,11-hexahydrotetracenyl)-2-ethoxy-2-((2S,3R)-3-amino-2-hydroxy-4-phenylbutyryl)-4-methylpentanoate hydrochloride [Compound 28]
inhibitory activity against aminopeptidase N compared with positive control ubenimex (Aminopeptidase N): comparable activity with ubenimex | IC50 (Aminopeptidase N): 5.56 µM | EC50 [1]: 3.34 µM | EC50 ([2]; 48 h): 4.35 µM | EC50 [3]: 7.67 µM | EC50 ([4]; 48 h): 2.55 µM | EC50 (cell line Hela): 1.99 µM | EC50 ([5]; 48 h): 4.02 µM | EC50 [6]: 3.02 µM | anti-proliferation effect against all the tumor cells [7]: obvious anti-proliferation effect | proliferation inhibition activity compared with 5-FU [7]: much more potent than 5-FU

Further lines, with some results ahead:

IC50 (Aminopeptidase N): 0.36 µM
Compound: CC(C)C[C@H](NC(=O)[C@@H](O)[C@H](N)Cc1ccccc1)C(=O)N[C@@H](C)C(=O)OCn1cc(F)c(=O)[nH]c1=O.Cl [BC-03, (S)-(5-fluoro-2,4-dioxo-3,4-dihydropyrimidinyl-1(2H))methyl-2-((S)-2-((2S,3R)-3-amino-2-hydroxy-4-phenylbutanamido)-4-methylpentanamido)propanoate hydrochloride]
inhibitory activity against aminopeptidase N compared with positive control ubenimex (Aminopeptidase N): much more potent than the positive control drug ubenimex

IC50 (Aminopeptidase N): 1.3 µM
Compound: CC(C)C[C@H](NC(=O)[C@@H](O)[C@H](N)Cc1ccccc1)C(=O)NCCC(=O)OCn1cc(F)c(=O)[nH]c1=O [BC-04, (5-fluoro-2,4-dioxo-3,4-dihydropyrimidinyl-1(2H))methyl-4-((S)-2-((2S,3R)-3-amino-2-hydroxy-4-phenylbutanamido)-4-methylpentanamido)propanoate hydrochloride]
inhibitory activity against aminopeptidase N compared with positive control ubenimex (Aminopeptidase N): much more potent than the positive control drug ubenimex

IC50 (Aminopeptidase N): 1.39 µM
Compound: CC(C)C[C@H](NC(=O)[C@@H](O)[C@H](N)Cc1ccccc1)C(=O)NCCCC(=O)OCn1cc(F)c(=O)[nH]c1=O [BC-05, (5-fluoro-2,4-dioxo-3,4-dihydropyrimidinyl-1(2H))methyl-6-((S)-2-((2S,3R)-3-amino-2-hydroxy-4-phenylbutanamido)-4-methylpentanamido)butanoate hydrochloride]
inhibitory activity against aminopeptidase N compared with positive control ubenimex (Aminopeptidase N): much more potent than the positive control drug ubenimex

IC50 (Aminopeptidase N): 4.66 µM
Compound: CC(C)C[C@H](NC(=O)[C@@H](O)[C@H](N)Cc1ccccc1)C(=O)NCCCCCC(=O)OCn1cc(F)c(=O)[nH]c1=O [BC-06, hydrochloride]
inhibitory activity against aminopeptidase N compared with positive control ubenimex (Aminopeptidase N): much more potent than the positive control drug ubenimex
